Assays:
[1] = system: heme cancer cell lines (MCL, AML, MM, lymphoma); test: Cell Titer-Glo growth/death assay; type: cell-based; details: several heme cancer cell lines incl. MCL, MM and lymphoma
Procedure: Heme cancer cells were treated with a PRMT5 inhibitor and a Cell Titer-Glo growth/death assay was performed.

[2] = system: MCL cell lines (Z-138, Maver-1, Mino, Jeko-1, Granta-519); test: Gene expression results from MCL cell lines (Table 4); type: cell-based, Human; details: Day 4
Procedure: The fold change was calculated using the Comparative Ct method ([…]). N=1. A previous RNA Seq study in MCL cell lines using a tool compound with the same cellular potency as Formula B identified expression changes in a number of genes involved in the apoptotic response (unpublished results). These genes included the Bcl-2 family members PUMA and BAX, well characterized drivers of the apoptotic response. Other genes implicated in the apoptotic response were also identified and include PHLDA3, TP53I3, p21, APOBEC3H, TRIM22, and FAS. […] [table]

[3] = Body weight loss in Maver-1 xenograft study; type: in vivo; details: 21 days
Procedure: Data presented in this example were determined after analysis of 21 day samples of mantle cell lymphoma tumors. Cmin PK samples were taken prior to the last dose on day 21. Tumors were excised, weighed and processed for methyl mark. Methyl mark reduction was measured in tumor samples and is shown as percent of vehicle control (POC). Both SYM11 and sDMA Elisa were used to measure methyl mark and the data shown is averaged from 10 animals. Tumor growth inhibition was determined using tumor volume reduction at day 21 expressed as a percent of POC. In vivo inhibition curves were also generated and IC50 values determined. Plasma levels from each group are averaged from 5 animals. […] The average body weight loss (BWL) in all groups was <6%. All doses tested show >50% TGI. […] The average BWL in all groups was <4%. The average BWL in all groups was <8%, except in the 100 mg/kg does group were 4 animals exceeded BWL of 15%.

[4] = system: cellular methylation (symmetric di-methyl arginine) in Z-138 cells; test: In Cell Western (ICW) methylation assay, SYM11 antibody; type: cell-based; details: Homo sapiens, 96 h, 4 days of treatment, n=1
Procedure: Percent inhibition was determined and IC50 curves were generated using triplicate wells per concentration of compound. IC50 values were calculated using GraphPad Prism using a 4-parametric fit of the normalized dose response curves with the top fixed to 100%. Z-138 suspension cells were purchased from ATCC (American Type Culture Collection, Manassas, Va.). RPMI/Glutamax medium, penicillin-streptomycin, heat inactivated fetal bovine serum, and D-PBS were purchased from Life Technologies, Grand Island, N.Y., USA. Odyssey blocking buffer, 800CW goat anti-rabbit IgG (H+L) antibody, and Licor Odyssey infrared scanner were purchased from Licor Biosciences, Lincoln, Nebr., USA. Symmetric di-methyl arginine antibody was purchased from EMD Millipore, Billerica, Mass., USA. 16% Paraformaldehyde was purchased from Electron Microscopy Sciences, Hatfield, Pa., USA. Z-138 suspension cells were maintained in growth medium (RPMI 1640 supplemented with 10% v/v heat inactivated fetal bovine serum and 100 units/mL penicillin-streptomycin) and cultured at 37° C. under 5% CO2. […] The average of the ratio values for each control type was calculated and used to determine the percent inhibition for each test well in the plate. […] Percent inhibition was determined and IC50 curves were generated using triplicate wells per concentration of compound. […]

[5] = tested: Z-138, Maver-1, Granta-519, Jeko-1

Structure (SMILES) | proliferation in heme cancer cell lines [1] | Cell Lines Showing Dose Dependent Changes: P21 ([2]; tested: Z-138, Granta-519, Jeko-1) | Cell Lines Showing Dose Dependent Changes: BAX ([2]; tested: Z-138, Maver-1) | Cell Lines Showing Dose Dependent Changes: FAS [2, 5] | Cell Lines Showing Dose Dependent Changes: TRIM22 [2, 5] | Cell Lines Showing Dose Dependent Changes: PUMA ([2]; tested: Z-138, Maver-1, Mino, Jeko-1, Granta-519) | average body weight loss (BWL) in all groups [3] [%] | IC50 [4] [nM]
O=C(NC[C@H](O)CN1CCc2ccccc2C1)c1ccnc(NC2CCC2)c1 [Formula C] | inhibits proliferation | – | – | – | – | – | – | –
CC(=O)N1CCC(Nc2cc(C(=O)NC[C@H](O)CN3CCc4ccccc4C3)ccn2)CC1 [Formula B] | – | Z-138, Granta-519 | Z-138, Maver-1 | Granta-519 (slight) | Granta-519 (slight) | Z-138, Maver-1 | < 4 | 0.64

Reference: patent US10653693B2, “PRMT5 inhibitors and uses thereof” (Epizyme, Inc., priority 2014, dated 2020)
